Key:
MEC-2 cell line = assay: 96-hour CTG cytotoxicity assay on MEC-2; assay type: cell-based, human; details: 96-hour CTG assay
Method: (§1) FIG. 16. Results of cytotoxicity studies on (A) MEC-1-, (B) MEC-2-, (C) Raji-, (D) Nalm-6-, and (E) Ramos cell lines, respectively, using the obinutuzumab amatoxin conjugates Obi-30.1699 and Obi-30.2115 in a 96-hour CTG assay in comparison to unconjugated α-amanitin.
(§2) Results are depicted in FIG. 14.
(§3) Results are depicted in FIG. 15.
(§4) Cytotoxic activities of the obinutuzumab amatoxin conjugates Obi-30.1699 and Obi-30.2115 were assessed in vitro on MEC-1, MEC-2, Raji, Nalm-6, and Ramos cell lines, respectively, using a 96-hour CTG assay, in comparison to unconjugated α-amanitin. Results are depicted in FIG. 16.

[1] = test system: Nalm-6 cells (CD20-negative); assay: 96-hour CTG cytotoxicity assay on Nalm-6; assay type: cell-based; details: 96-hour CTG assay
Method: as §1, §3, §4

MEC-1 cell line = assay: 96-hour CTG cytotoxicity assay on MEC-1; assay type: cell-based, human; details: 96-hour CTG assay
Method: as §1, §2, §3, §4

Ramos cell line = assay: 96-hour CTG cytotoxicity assay on Ramos; assay type: cell-based; details: 96-hour CTG assay
Method: as §1, §3, §4

RNA-polymerase II = RNA-polymerase II (Homo sapiens, UniProt P24928); details: read-out: KD of complex with RNA-polymerase II; cited from earlier work
Raji cell line = assay: 96-hour CTG cytotoxicity assay on Raji; assay type: cell-based, human; details: 96-hour CTG assay
Method: as §1, §3, §4

Q: What does the source list for `CC[C@H](C)[C@@H]1NC(=O)CNC(=O)[C@@H]2Cc3c([nH]c4cc(O)ccc34)[S+]([O-])C[C@@H](NC(=O)CNC1=O)C(=O)N[C@@H](CC(N)=O)C(=O)N1C[C@H](O)C[C@H]1C(=O)N[C@@H]([C@@H](C)[C@@H](O)CO)C(=O)N2` (stereo in doubt) [α-amanitin, reference compound]?
A: Cytotoxic effect on MEC-2 (in words) (MEC-2 cell line): cytotoxic effects on all cell lines only in the millimolar range; Cytotoxic effect on Nalm-6 (in words) [1]: cytotoxic effects on all cell lines only in the millimolar range; Cytotoxic effect on MEC-1 (in words) (MEC-1 cell line): cytotoxic effects on all cell lines only in the millimolar range; Cytotoxic effect on Ramos (in words) (Ramos cell line): cytotoxic effects on all cell lines only in the millimolar range; Kd (RNA-polymerase II): 3 nM; Cytotoxic effect on Raji (in words) (Raji cell line): cytotoxic effects on all cell lines only in the millimolar range
